Assay results from paper PMC3986099, “Development of a Radioiodinated Triazolopyrimidine Probe for Nuclear Medical Imaging of Fatty Acid Binding Protein 4” (PLoS ONE, 2014).

Legend:
[1] = Biodistribution in normal mice; type: in vivo, ddY mice; conditions: for Blood / Heart / Intestine / Kidney / Liver / Lung / Muscle / Pancreas / Spleen / Stomach / Thyroid gland: normal mice, i.v.
Experimental: A saline solution (5% ethanol, v/v) of [^125I]TAP1 (0.035 MBq) was injected intravenously into the tail vein of ddY mice (males, 5 weeks old). The mice were sacrificed at various post-injection time points, and the organs of interest were removed. The organ weights were determined, and the radioactivity in the organs was measured with a well-type γ-counter.

[2] = biological target: T1, FABP4 (Homo sapiens, UniProt P15090); test: Saturation binding assay, Scatchard analysis; conditions: immobilized FABP4
T1 construct: purchased Cayman Chemical Company
Experimental: For the saturation assay, a mixture solution of [^125I]TAP1 (0.3–9.5 MBq) was prepared by mixing nonradioactive TAP1 (0.0125–0.4 µM) in interaction buffer (2.5% ethanol and 5% DMSO, v/v). Nonspecific binding was defined in the presence of 0.09 mg/ml [^125I]TAP1 including nonradioactive TAP1. After FABP4 immobilization as described above, 0.4 ml interaction buffer and 0.05 ml mixture solution were added, and the mixture was incubated at room temperature for 2 hr. After incubation, the supernatants were removed and the beads were washed with interaction buffer (5% ethanol, v/v). The radioactivity of beads in the tubes was then measured with a well-type γ-counter. The dissociation constant (K d) of [^125I]TAP1 for FABP4 was determined by Scatchard analysis using GraphPad Prism.

[3] = Metabolite analysis in liver and kidneys; type: in vivo, ddY mice; conditions: 1 hr after i.v. administration, normal mice
Experimental: A saline solution (5% ethanol, v/v) of [^125I]TAP1 (1.20 MBq) was injected intravenously into the tail vein of ddY mice (males, 5 weeks old), and animals were sacrificed 1 hr post-injection. The liver and kidneys were removed and homogenized in 1 ml ice-cold 30 mM Tris-HCl buffer (pH = 8.5) containing 5 mM magnesium acetate at 4 °C. After addition of 3 ml cold methanol and vortexing, tissue samples were centrifuged (10,000×g, 5 min). The supernatants were filtered, and the filtrate was analyzed by RP-HPLC as described above.

[4] = system: 3T3-L1 preadipocytes and differentiated adipocytes; test: Cell uptake study in adipocytes and preadipocytes; type: cell-based, Murine; conditions: 37 °C, 1 hr
Experimental: Murine 3T3-L1 preadipocytes were obtained from ATCC and cultured in Dulbecco's Modified Eagle Medium (Nissui Pharmaceutical Co., Ltd.) supplemented with 10% heat-inactivated fetal bovine serum, 50 U/ml penicillin and 50 μg/ml streptomycin at 37 °C in 5% CO2. For cell uptake assay, differentiation of 3T3-L1 cells was performed as described previously. Briefly, two days after confluence, the medium was replaced with DMEM containing 10% FBS and inducers ([…], 10 μg/ml insulin, 0.5 mM 3-isobutyl-1-methylxanthine and 10 μM pioglitazone hydrochloride) for 2 days. The medium was then changed to DMEM supplemented with 10% FBS, 10 μg/ml insulin and 10 μM pioglitazone hydrochloride, and then incubated for 2 days. Then, the medium was changed to DMEM supplemented with 10% FBS and 10 μM pioglitazone hydrochloride every other day. After 8-10 days, the differentiated adipocytes were used for experiments.
For the cell uptake study using adipocytes, the medium of 24-well plate, in which the differentiated adipocytes or undifferentiated 3T3-L1 cells are cultured, was removed. […] Following the measurement of the radioactivity of collected cell lysate with a well-type γ-counter, protein determination was performed. […] Binding ratios were calculated as (radioactivity in collected cells)/(total applied radioactivity)/(protein abundance) x 100 (%Dose/mg protein).

T1 sequence (P15090 whole entry): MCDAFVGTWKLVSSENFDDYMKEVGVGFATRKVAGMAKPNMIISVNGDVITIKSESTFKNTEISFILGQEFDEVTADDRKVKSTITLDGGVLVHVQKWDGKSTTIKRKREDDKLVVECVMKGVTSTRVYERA

## O=c1cc(COc2cccc([125I])c2)[nH]c2nc(-c3ccccc3)nn12 [[^125I]TAP1]
[1]; low radioactivity in stomach and thyroid gland
  stability against deiodination in vivo: stable against deiodination
[1]; 5 min
  Blood: 3.25±0.20 % injected dose per gram
  Heart: 1.59±0.54 % injected dose per gram
  Intestine: 2.21±1.43 % injected dose per gram
  Kidney: 15.30±9.93 % injected dose per gram
  Liver: 57.51±4.79 % injected dose per gram
  Lung: 3.12±1.11 % injected dose per gram
  Muscle: 0.73±0.51 % injected dose per gram
  Pancreas: 1.53±0.84 % injected dose per gram
  Spleen: 1.54±0.60 % injected dose per gram
  Stomach: 0.40±0.14 % injected dose per organ
  Thyroid gland: 0.01±0.005 % injected dose per organ
[1]; 15 min
  Blood: 3.91±0.75 % injected dose per gram
  Heart: 1.57±0.51 % injected dose per gram
  Intestine: 2.21±0.72 % injected dose per gram
  Kidney: 32.89±11.78 % injected dose per gram
  Liver: 47.58±2.57 % injected dose per gram
  Lung: 2.88±0.65 % injected dose per gram
  Muscle: 0.83±0.09 % injected dose per gram
  Pancreas: 1.23±0.26 % injected dose per gram
  Spleen: 1.84±0.43 % injected dose per gram
  Stomach: 0.76±0.14 % injected dose per organ
  Thyroid gland: 0.03±0.01 % injected dose per organ
[1]; 30 min
  Blood: 3.45±0.41 % injected dose per gram
  Heart: 1.39±0.25 % injected dose per gram
  Intestine: 3.83±0.07 % injected dose per gram
  Kidney: 45.34±3.34 % injected dose per gram
  Liver: 50.91±7.27 % injected dose per gram
  Lung: 2.76±0.49 % injected dose per gram
  Muscle: 0.67±0.16 % injected dose per gram
  Pancreas: 0.89±0.12 % injected dose per gram
  Spleen: 1.29±0.13 % injected dose per gram
  Stomach: 0.92±0.21 % injected dose per organ
  Thyroid gland: 0.03±0.01 % injected dose per organ
[1]; 60 min
  Blood: 2.02±0.35 % injected dose per gram
  Heart: 0.96±0.32 % injected dose per gram
  Intestine: 5.10±1.43 % injected dose per gram
  Kidney: 45.89±13.85 % injected dose per gram
  Liver: 46.70±4.43 % injected dose per gram
  Lung: 1.93±0.91 % injected dose per gram
  Muscle: 0.64±0.20 % injected dose per gram
  Pancreas: 1.46±0.55 % injected dose per gram
  Spleen: 1.14±0.38 % injected dose per gram
  Stomach: 1.40±0.69 % injected dose per organ
  Thyroid gland: 0.02±0.08 % injected dose per organ
[1]; 120 min
  Blood: 1.72±0.49 % injected dose per gram
  Heart: 1.11±0.23 % injected dose per gram
  Intestine: 10.58±1.93 % injected dose per gram
  Kidney: 50.84±18.75 % injected dose per gram
  Liver: 31.00±1.52 % injected dose per gram
  Lung: 1.46±0.13 % injected dose per gram
  Muscle: 0.71±0.24 % injected dose per gram
  Pancreas: 0.64±0.1 % injected dose per gram
  Spleen: 1.44±1.21 % injected dose per gram
  Stomach: 2.02±0.70 % injected dose per organ
  Thyroid gland: 0.14±0.21 % injected dose per organ
[2]
  Kd: 69.1 ± 12.3 nM
[3]
  intact form in kidneys: more than 90%
  intact form in liver: more than 90%
[4]
  uptake into adipocytes (FABP4 positive) vs 3T3-L1 preadipocytes (FABP4 negative): significantly higher
